Measured values taken from patent US12527801B2, “Cell activator of animal cell” (Vitamin C60 BioResearch Corporation, priority 2019, dated 2026).

Key:
[1] = system: reconstructed human epidermis (RhE) model (SkinEthic-RHE); test: Skin irritation test, reconstructed human epidermis model, MTT cell viability; type: cell-based
Protocol: A skin irritation test was performed in accordance with OECD Test Guidelines (No. 439), and SKINETHIC SKIN IRRITATION TEST, which is a TEST METHOD FOR THE PREDICTION OF ACUTE SKIN IRRITATION OF CHEMICALS and is a protocol published by the European Centre for the Validation of Alternative Methods (ECVAM). […] The cell viability of the RhE model was measured by an MTT method. In the MTT method, the cell viability is measured by quantitatively determining blue formazan utilizing a property that MTT (3-(4,5-dimethylthiazol-2-yl)-2,5-diphenyltetrazolium bromide, thiazolyl blue), which is a vital staining dye, is reduced to blue formazan by enzymatic reaction of viable cells. […]
After exposing the test sample for 42 minutes, the test sample was immediately removed from the epidermis model by a washing operation and cultured in fresh growth medium for an additional 42 hours. […] Thereafter, the epidermis model was immersed in isopropanol for 2 hours to extract blue formazan in the epidermis model, and the absorbance at 570 nm of the extraction liquid was measured with a microplate reader. The same treatment was performed on the epidermis model exposed to the negative control and the positive control to measure the absorbance. […]

[2] = Mutagenicity test (Ames test) (OECD TG471); type: cell-based
[3] = In vitro phototoxicity test (OECD TG432); type: cell-based
[4] = Human patch test; conditions: in vivo

SMILES: O=c1[nH]c2nn[nH]c(=O)c2[nH]1 [AOH, 3H-imidazo[4,5-d][1,2,3]triazine-4,6(5H,7H)-dione]
- cell viability of the skin model ([1]; 42 min exposure, 42 h post-culture, MTT, PBS (−) negative control as 100%): 100%
- skin irritation determination ([1]; RhE model, OECD TG 439): non-irritating
- toxicity in mutagenicity test (Ames test) [2]: toxicity was not recognized
- toxicity in in vitro phototoxicity test [3]: toxicity was not recognized
- toxicity in human patch test [4]: toxicity was not recognized
